Source: PubChem BioAssay AID1745844 (Carcinogenic Potency Database (CPDB), 2022)
Active and inactive are the calls of the source. No rule for the calls is given here.

System: rodent lifetime carcinogenesis bioassay, tumor incidence TD50
Experiment: chronic cancer bioassays in animals – CPDB, compiled studies (AID 1745844)

## C=Cc1ccccc1
mouse, strain B6C3F1, females, by gavage, site: any site (literature study), lesion: several types, types named in the paper, dosed 78 weeks, study length 91 weeks
  TD50: 625 mg/kg/day
mouse, strain B6C3F1, females, by gavage, site: liver, lesion: hepatocellular adenoma + hepatocellular carcinoma + neoplastic nodule, dosed 78 weeks, study length 91 weeks
  TD50: 905 mg/kg/day
mouse, strain B6C3F1, females, by gavage, site: liver, lesion: hepatocellular adenoma, dosed 78 weeks, study length 91 weeks
  TD50: 905 mg/kg/day (inactive)
mouse, strain B6C3F1, females, by gavage, site: lung, lesion: alveolar/bronchiolar adenoma + alveolar/bronchiolar carcinoma, dosed 78 weeks, study length 91 weeks
  TD50: 1380 mg/kg/day
mouse, strain B6C3F1, males, by gavage, site: any site (literature study), lesion: several types, types named in the paper, dosed 78 weeks, study length 91 weeks
  TD50: 659 mg/kg/day
mouse, strain B6C3F1, males, by gavage, site: liver, lesion: hepatocellular adenoma + hepatocellular carcinoma + neoplastic nodule, dosed 78 weeks, study length 91 weeks
  TD50: 895 mg/kg/day
mouse, strain B6C3F1, males, by gavage, site: lung, lesion: alveolar/bronchiolar adenoma + alveolar/bronchiolar carcinoma, dosed 78 weeks, study length 91 weeks
  TD50: 360 mg/kg/day
mouse, strain Charles River CD1, females, inhaled, site: any site (literature study), lesion: several types, types named in the paper, dosed 98 weeks, study length 98 weeks
  TD50: 400 mg/kg/day
mouse, strain Charles River CD1, females, inhaled, site: liver, lesion: several types, types named in the paper, dosed 98 weeks, study length 98 weeks
  TD50: 13600 mg/kg/day
mouse, strain Charles River CD1, females, inhaled, site: lung, lesion: alveolar/bronchiolar adenoma, dosed 98 weeks, study length 98 weeks
  TD50: 331 mg/kg/day
mouse, strain Charles River CD1, females, inhaled, site: lung, lesion: alveolar/bronchiolar carcinoma, dosed 98 weeks, study length 98 weeks
  TD50: 1300 mg/kg/day
mouse, strain Charles River CD1, males, inhaled, site: any site (literature study), lesion: several types, types named in the paper, dosed 104 weeks, study length 105 weeks
  TD50: 209 mg/kg/day
mouse, strain Charles River CD1, males, inhaled, site: liver, lesion: hepatocellular carcinoma, dosed 104 weeks, study length 105 weeks
  TD50: 2860 mg/kg/day
mouse, strain Charles River CD1, males, inhaled, site: lung, lesion: alveolar/bronchiolar adenoma, dosed 78 weeks, study length 78 weeks
  TD50: 465 mg/kg/day
mouse, strain Charles River CD1, males, inhaled, site: lung, lesion: alveolar/bronchiolar adenoma, dosed 104 weeks, study length 105 weeks
  TD50: 154 mg/kg/day
mouse, strain Charles River CD1, males, inhaled, site: lung, lesion: alveolar/bronchiolar carcinoma, dosed 104 weeks, study length 105 weeks
  TD50: 1770 mg/kg/day
rat, strain Charles River CD (Sprague-Dawley), females, inhaled, site: liver, lesion: hepatocellular adenoma, dosed 104 weeks, study length 106 weeks
  TD50: 12200 mg/kg/day (inactive)
rat, strain Charles River CD (Sprague-Dawley), females, inhaled, site: liver, lesion: one or several types, types not named, dosed 52 weeks, study length 52 weeks
  carcinogen call: negative (inactive)
rat, strain Charles River CD (Sprague-Dawley), males, inhaled, site: liver, lesion: one or several types, types not named, dosed 52 weeks, study length 52 weeks
  carcinogen call: negative (inactive)
rat, strain Charles River CD (Sprague-Dawley), males, inhaled, site: liver, lesion: several types, types named in the paper, dosed 104 weeks, study length 106 weeks
  TD50: 9930 mg/kg/day (inactive)
rat, strain Fischer 344, females, by gavage, site: any site (literature study), lesion: several types, types named in the paper, dosed 90 weeks, study length 97 weeks
  carcinogen call: negative (inactive)
rat, strain Fischer 344, females, by gavage, site: liver, lesion: hepatocellular adenoma + hepatocellular carcinoma + neoplastic nodule, dosed 90 weeks, study length 97 weeks
  TD50: 25200 mg/kg/day
rat, strain Fischer 344, males, by gavage, site: any site (literature study), lesion: several types, types named in the paper, dosed 90 weeks, study length 97 weeks
  TD50: 3410 mg/kg/day (inactive)
rat, strain Sprague-Dawley, females, by gavage, site: any site (literature study), lesion: several types, types named in the paper, dosed 52 weeks, study length 104 weeks
  TD50: 12 mg/kg/day
rat, strain Sprague-Dawley, females, inhaled, site: any site (literature study), lesion: malignant tumor, dosed 52 weeks, study length 104 weeks
  TD50: 205 mg/kg/day
rat, strain Sprague-Dawley, females, inhaled, site: any site (literature study), lesion: several types, types named in the paper, dosed 52 weeks, study length 104 weeks
  TD50: 48.7 mg/kg/day
rat, strain Sprague-Dawley, females, inhaled, site: mammary tissue, wider than the gland, lesion: malignant tumor, dosed 52 weeks, study length 104 weeks
  TD50: 57.1 mg/kg/day
rat, strain Sprague-Dawley, females, inhaled, site: mammary tissue, wider than the gland, lesion: several types, types named in the paper, dosed 52 weeks, study length 104 weeks
  TD50: 23.3 mg/kg/day
rat, strain Sprague-Dawley, males, by gavage, site: any site (literature study), lesion: malignant tumor, dosed 52 weeks, study length 104 weeks
  TD50: 1090 mg/kg/day
rat, strain Sprague-Dawley, males, by gavage, site: any site (literature study), lesion: several types, types named in the paper, dosed 52 weeks, study length 104 weeks
  TD50: 1220 mg/kg/day
rat, strain Sprague-Dawley, males, inhaled, site: any site (literature study), lesion: several types, types named in the paper, dosed 52 weeks, study length 104 weeks
  TD50: 107 mg/kg/day

## CCCCCCCN
rat, strain Wistar, males, in drinking water, site: any site (literature study), lesion: several types, types named in the paper, dosed 61 weeks, study length 61 weeks
  carcinogen call: negative (inactive)

## Cc1cc(=O)[nH]c(=S)[nH]1
hamster, strain Not specified, females, in drinking water, site: thyroid gland, lesion: several types, types named in the paper, dosed 52 weeks, study length 52 weeks
  TD50: 53.4 mg/kg/day
mouse, strain C3H/FIB, both sexes, in feed, site: liver, lesion: hepatoma, dosed 51 weeks, study length 78 weeks
  TD50: 1370 mg/kg/day

## CNNC
hamster, strain Syrian Golden, females, in drinking water, site: blood vessels, lesion: angiosarcoma, dosed 67 weeks, study length 67 weeks
  TD50: 0.156 mg/kg/day
hamster, strain Syrian Golden, females, in drinking water, site: cecum, lesion: adenocarcinoma, dosed 67 weeks, study length 67 weeks
  TD50: 2.84 mg/kg/day
hamster, strain Syrian Golden, females, in drinking water, site: cecum, lesion: polypoid adenoma, dosed 67 weeks, study length 67 weeks
  TD50: 2.08 mg/kg/day
hamster, strain Syrian Golden, females, in drinking water, site: cecum, lesion: several types, types named in the paper, dosed 67 weeks, study length 67 weeks
  TD50: 0.864 mg/kg/day
hamster, strain Syrian Golden, females, in drinking water, site: heart, lesion: angiosarcoma, dosed 67 weeks, study length 67 weeks
  TD50: 2.13 mg/kg/day
hamster, strain Syrian Golden, females, in drinking water, site: liver, lesion: angiosarcoma, dosed 67 weeks, study length 67 weeks
  TD50: 0.156 mg/kg/day
hamster, strain Syrian Golden, females, in drinking water, site: liver, lesion: hepatoma, dosed 67 weeks, study length 67 weeks
  TD50: 1.4 mg/kg/day
hamster, strain Syrian Golden, females, in drinking water, site: liver, lesion: several types, types named in the paper, dosed 67 weeks, study length 67 weeks
  TD50: 0.917 mg/kg/day
hamster, strain Syrian Golden, females, in drinking water, site: lung, lesion: angiosarcoma, dosed 67 weeks, study length 67 weeks
  TD50: 0.395 mg/kg/day
hamster, strain Syrian Golden, females, in drinking water, site: muscle, lesion: angiosarcoma, dosed 67 weeks, study length 67 weeks
  TD50: 1.03 mg/kg/day
hamster, strain Syrian Golden, females, in drinking water, site: pancreas, lesion: angiosarcoma, dosed 67 weeks, study length 67 weeks
  TD50: 18.4 mg/kg/day
hamster, strain Syrian Golden, males, in drinking water, site: blood vessels, lesion: angiosarcoma, dosed 71 weeks, study length 71 weeks
  TD50: 0.211 mg/kg/day
hamster, strain Syrian Golden, males, in drinking water, site: cecum, lesion: polypoid adenoma, dosed 71 weeks, study length 71 weeks
  TD50: 2.42 mg/kg/day
hamster, strain Syrian Golden, males, in drinking water, site: heart, lesion: angiosarcoma, dosed 71 weeks, study length 71 weeks
  TD50: 2.49 mg/kg/day
hamster, strain Syrian Golden, males, in drinking water, site: liver, lesion: angiosarcoma, dosed 71 weeks, study length 71 weeks
  TD50: 0.211 mg/kg/day
hamster, strain Syrian Golden, males, in drinking water, site: liver, lesion: several types, types named in the paper, dosed 71 weeks, study length 71 weeks
  TD50: 2.05 mg/kg/day
hamster, strain Syrian Golden, males, in drinking water, site: lung, lesion: angiosarcoma, dosed 71 weeks, study length 71 weeks
  TD50: 0.685 mg/kg/day
hamster, strain Syrian Golden, males, in drinking water, site: muscle, lesion: angiosarcoma, dosed 71 weeks, study length 71 weeks
  TD50: 1.36 mg/kg/day
hamster, strain Syrian Golden, males, in drinking water, site: pancreas, lesion: angiosarcoma, dosed 71 weeks, study length 71 weeks
  TD50: 18.6 mg/kg/day
mouse, strain Swiss albino, females, in drinking water, site: blood vessels, lesion: angiosarcoma, dosed 52 weeks, study length 52 weeks
  carcinogen call: positive
mouse, strain Swiss albino, females, in drinking water, site: liver, lesion: hepatoma, dosed 52 weeks, study length 52 weeks
  TD50: 13.9 mg/kg/day
mouse, strain Swiss albino, females, in drinking water, site: lung, lesion: adenoma, dosed 52 weeks, study length 52 weeks
  TD50: 0.559 mg/kg/day
mouse, strain Swiss albino, males, in drinking water, site: blood vessels, lesion: angiosarcoma, dosed 52 weeks, study length 52 weeks
  TD50: 0.102 mg/kg/day
mouse, strain Swiss albino, males, in drinking water, site: fat, lesion: angiosarcoma, dosed 52 weeks, study length 52 weeks
  TD50: 0.215 mg/kg/day
mouse, strain Swiss albino, males, in drinking water, site: liver, lesion: angiosarcoma, dosed 52 weeks, study length 52 weeks
  TD50: 0.377 mg/kg/day
mouse, strain Swiss albino, males, in drinking water, site: lung, lesion: several types, types named in the paper, dosed 52 weeks, study length 52 weeks
  TD50: 1.81 mg/kg/day
mouse, strain Swiss albino, males, in drinking water, site: lymph node, lesion: angiosarcoma, dosed 52 weeks, study length 52 weeks
  TD50: 1.02 mg/kg/day
mouse, strain Swiss albino, males, in drinking water, site: muscle, lesion: angiosarcoma, dosed 52 weeks, study length 52 weeks
  TD50: 0.203 mg/kg/day
mouse, strain Swiss albino, males, in drinking water, site: paraepididymal tissue, lesion: angiosarcoma, dosed 52 weeks, study length 52 weeks
  TD50: 0.337 mg/kg/day
mouse, strain Swiss albino, males, in drinking water, site: pararenal tissue, lesion: angiosarcoma, dosed 52 weeks, study length 52 weeks
  TD50: 0.18 mg/kg/day
mouse, strain Swiss albino, males, in drinking water, site: subcutaneous tissue, lesion: angiosarcoma, dosed 52 weeks, study length 52 weeks
  TD50: 0.781 mg/kg/day

## CCN(CC)CCOc1ccc(C(=C(Cl)c2ccccc2)c2ccccc2)cc1
mouse, strain C57L/He x 129/Rr x C3HeB/De x SWR/Ly, females, by gavage, site: any site (literature study), lesion: several types, types named in the paper, dosed 69 weeks, study length 69 weeks
  TD50: 3.62 mg/kg/day (inactive)
mouse, strain C57L/He x 129/Rr x C3HeB/De x SWR/Ly, females, by gavage, site: any site (literature study), lesion: several types, types named in the paper, dosed 69 weeks, study length 82 weeks
  carcinogen call: negative (inactive)
mouse, strain C57L/He x 129/Rr x C3HeB/De x SWR/Ly, females, by gavage, site: lung, lesion: one or several types, types not named, dosed 69 weeks, study length 69 weeks
  TD50: 5 mg/kg/day (inactive)

## CCCCCC
mouse, strain B6C3F1, females, inhaled, site: liver, lesion: hepatocellular carcinoma, dosed 105 weeks, study length 105 weeks
  TD50: 84800 mg/kg/day
mouse, strain B6C3F1, females, inhaled, site: liver, lesion: several types, types named in the paper, dosed 105 weeks, study length 105 weeks
  TD50: 30300 mg/kg/day
mouse, strain B6C3F1, females, inhaled, site: pituitary gland, lesion: adenoma, dosed 105 weeks, study length 105 weeks
  TD50: 10300 mg/kg/day
mouse, strain B6C3F1, females, inhaled, site: pituitary gland, lesion: several types, types named in the paper, dosed 105 weeks, study length 105 weeks
  TD50: 9460 mg/kg/day
mouse, strain B6C3F1, males, inhaled, site: liver, lesion: several types, types named in the paper, dosed 105 weeks, study length 105 weeks
  carcinogen call: negative (inactive)
rat, strain Fischer 344, females, inhaled, site: nasal mucosa, lesion: one or several types, types not named, dosed 105 weeks, study length 105 weeks
  carcinogen call: negative (inactive)
rat, strain Fischer 344, males, inhaled, site: nasal mucosa, lesion: one or several types, types not named, dosed 105 weeks, study length 105 weeks
  carcinogen call: negative (inactive)
